Measured values taken from patent US8420345B2, “Method for identifying at least two groups of microorganisms” (Biomerieux, priority 2006, dated 2013).

Assays:
[1] = test system: the other serotypes (salmonella); assay: Example 3: esterase substrate preference, conclusion from table 4; format: cell-based; settings: coloration intensities being stronger for this substrate
Procedure: (§1) The media thus constituted were distributed into Petri dishes.
(§2) Various salmonella serotypes were inoculated, using a 10 μl calibrated loop, onto each medium, using calibrated suspensions of 0.5 McFarland. All the cultures were incubated for 24 h at 37° C.
(§3) The growth and coloration results obtained at 24 h of incubation are given in table 3, in which G signifies growth, C signifies color, I signifies colorless, In signifies coloration intensity, the sign ++ signifies very good growth, the sign + signifies good growth of the strain, the sign +/− signifies moderate growth of the strain and the sign − signifies lack of growth of the strain. 1 corresponds to a weak coloration intensity, 2 corresponds to moderate and 3 corresponds to strong.
As a result of this, a medium containing these two substrates of the same enzymatic activity makes it possible to obtain colored colonies for the various salmonella serotypes, and to separate the Dublin serotype from the other salmonella serotypes and from bacteria not expressing esterase.

[2] = test system: S. enteritidis serotype Dublin; assay: Example 3: colony color, coloration intensity and growth on Columbia agar with esterase substrates; format: cell-based; settings: X—C8 versus Magenta-C8
Procedure: as §1, §2, §3

`CCCCCCCC(=O)Oc1c[nH]c2cc(Cl)c(Br)cc12` [Magenta-C8, 5-Bromo-6-Chloro-3-Indoxyl Octanoate] was tested, and the “preferential hydrolysis by esterase activity” value [1] was “preferentially hydrolyze Magenta-C8”.
With `CCCCCCCC(=O)Oc1c[nH]c2ccc(Br)c(Cl)c12` [X—C8, 5-Bromo-4-Chloro-3-Indoxyl Octanoate] the “specificity of hydrolysis by esterase activity” value [2] was “hydrolyzes X—C8 more specifically than Magenta-C8”.
